Measured values reported in US7247725B2, “Gamma-aminoamide modulators of chemokine receptor activity” (Merck & Co., Inc., priority 2002, dated 2007).

Biological target: CCR-2 (Homo sapiens, UniProt P41597)
Assay: relative activity of separated diastereomers (assay not stated)
Details: single isomers separated by chiral HPLC (ChiralPak OD); fast vs slow isomer

Sequence of CCR-2 (P41597 whole entry): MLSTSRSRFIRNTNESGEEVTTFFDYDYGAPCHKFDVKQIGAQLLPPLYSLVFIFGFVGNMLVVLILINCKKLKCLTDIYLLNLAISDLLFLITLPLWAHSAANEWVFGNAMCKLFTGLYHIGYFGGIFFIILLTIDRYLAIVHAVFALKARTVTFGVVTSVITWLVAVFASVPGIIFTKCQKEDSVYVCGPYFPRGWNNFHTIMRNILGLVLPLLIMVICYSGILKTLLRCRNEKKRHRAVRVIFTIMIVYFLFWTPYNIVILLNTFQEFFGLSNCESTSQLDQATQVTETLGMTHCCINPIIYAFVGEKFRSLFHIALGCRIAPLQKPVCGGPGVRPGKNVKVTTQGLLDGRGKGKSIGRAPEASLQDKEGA

Structure (SMILES) | relative activity of the two diastereomers epimeric α to the amide carbonyl
CC(=O)Nc1nc([C@@H](CCN2CC[C@@]3(C=Cc4ccccc43)[C@@H](C)C2)C(=O)NCc2cc(C(F)(F)F)cc(C(F)(F)F)c2)cs1 [Example 52h-(R)] | less active
CC(=O)Nc1nc([C@H](CCN2CC[C@@]3(C=Cc4ccccc43)[C@@H](C)C2)C(=O)NCc2cc(C(F)(F)F)cc(C(F)(F)F)c2)cs1 [Example 52h-(S)] | more active
